Measurements reported in patent US6737237B1, “Antimicrobial agents, diagnostic reagents, and vaccines based on unique Apicomplexan parasite components” (Apicomplexan Therapeutics, LLC, priority 1999, dated 2004).
Converted amounts (≈) assume the structure as drawn. “And” between values parts separate entries of the source, which are not always exact repeats. Identical values can stand only once. Like-named read-outs stand apart in the source and are kept apart here.

Tests used:
C. parvum = C. parvum infection of MDBKF5D2 cell monolayers, immunofluorescence assay at 48 hours; assay type: cell-based, Cryptosporidium parvum; conditions: for approximate 95% C1 count (mean parasite count per field): media alone ~1800
Method: C. parvum oocysts at 50,000/well were incubated at 37° C. (8% CO2) on confluent MDBKF5D2 cell monolayers in 96 well microtiter plates with the following concentrations of each drug. […] The level of infection of each well was determined and analyzed by an immunofluorescence assay at 48 hours using an antibody to C. parvum sporozoites made in rabbits at a concentration of 0.1%. Fluorescein-conjugated goat anti-rabbit antibody was used at a concentration of 1%.
(8% carbon dioxide) on confluent MDBKF5D2 cell monolayers in 96 well microtiter plates. The level of infection of each well was determined and analyzed by an immunofluorescence assay at 48 hours using as an antibody C. parvum sporozoite rabbit anti-serum (0.1%), and using fluorescein-conjugated goat anti-rabbit antibody (1%). Data are expressed as mean parasite count/field when 16 fields counted at 10× magnification “s.d. of the mean” (FIG. 6).

[1] = system: P. falciparum asexual erythrocytic forms; assay: P. falciparum in vitro growth, clone not stated; assay type: cell-based, Plasmodium falciparum
Method: This assay is performed in folate deficient RPMI 1640 over a 66 hour incubation in plasma as described by Milhous et al. (1985). Both the W2 clone DHFR resistant phenotype and the D6 clone are used (Odula et al., 1988) (Table 3).

T. gondii EPSP synthase = T. gondii EPSP synthase enzyme activity (HPLC); assay type: biochemical, Toxoplasma gondii; conditions: 1 mM
Method: Assays for 4-aminobenzoate and 4-amino-4-deoxychorismate are performed as described previously.” Enzyme Assays: The 5-enolpyruvylshikimate-3-phosphate (EPSP) synthase assay entailed monitoring the generation of EPSP using HPLC. Reaction components were separated using a Hypersil H3APS2 HPLC column (Hichrom Limited, Reading, UK) and a NaH2PO4 elution gradient (50-400 mM). UV spectra (200-300 nm) of the colume eluate were collected to identify eluants. […] The peaks at 215 nm were integrated; the EPSP produced was quantified using a standard curve of authentic EPSP. Parasite extracts were produced at 4° C. by suspension of pure tachyzoites in extraction buffer (50 mM Tris.HCl, pH 7.5, containing complete TM protease inhibitor cocktail [Boehringer Mannheim, 1 tablet per 50 ml buffer]), sonication 3 times for 3 seconds at 30 second intervals, and centrifugation at 12000 g for 15 min. The resulting supernatant was diluted 6-fold with extraction buffer and loaded onto a ResourceQ column (1 ml, Pharmacia) equilibrated with extraction buffer. The bound protein was eluted in a single step using extraction buffer containing 500 mM Kcl. The eluted material was used for enzyme assay. The assay mix contained 1 mM phosphoenolpyruvate, 1 mM SP and 50 mM HEPES, pH 7.5. […] Protein concentrations of lysates were determined using the Lowry method. […]

[2] = system: D6 clone of Plasmodium falciparum; assay: P. falciparum in vitro assay (Milhous et al., 1985), D6 clone; assay type: cell-based; conditions: D6 clone, folate deficient RPMI 1640, 66 hour incubation
T. gondii = assay: Assay for synergy in vitro: inhibitors alone and together on replication of T. gondii (uracil CPM); assay type: cell-based, Toxoplasma gondii; conditions: Drug A alone: NPMG (3.25 mM)
Excerpt: The effect of enzymes in pathways “in parallel” are additive and in “series” are more than the additive effect of either inhibitor used alone (i.e., synergistic). […] The shikimate pathway produces 3,4-dihdroxybenzoate which is converted to ubiquinone, an essential component of the electron transport chain. Thus, NPMG, an inhibitor of EPSP-synthase, indirectly affects ubiquinone production and, thus, the electron transport chain. Similarly, heme is required for production of cytochromes in the electron transport chain. Thus, inhibition of heme production by gabaculine also indirectly affects the conventional electron transport chain. […] T. gondii growth is measured by their ability to incorporate tritiated uracil and is expressed as counts/minute (CPM).
g) Assays for Synergy in vitro: This is an assy in which ≦50% inhibitor concentrations of two antimicrobial agents are added alone and together to determine whether there is an additive, synergistic or inhibitory interaction. All other aspects of this assay are as described herein.

[3] = system: T. gondii tachyzoites (RH strain); assay: microbe, parasite or virus in culture; assay type: cell-based, Toxoplasma gondii
Method: The improvements are based on microscopic visual imspection of infected and inhibitor treated cultures, and on quantitation of nucleic acid synthesis of the parasite by measure intake of ^3H uracil onto the parasite's nucleic acid. Uracil is not utilized by mammalian cells. […] Only the RH strain tachyzoites, cultured for up to 72 hours, had been used in previously reported assays. The use of Me49, Ptg, and R5 mutant are unique aspects of the methods used in these assays in this invention.
(§1) In these assays toxicity of a candidate inhibitor was assessed by its ability to prevent growth of human foreskin fibroblasts (HFF) after 4 days and after 8 days as measured by tritiated thymidine uptake and microscopic evaluation. Confluent monolayers of HFF were infected with tachyzoites and bradyzoites. Inhibitor was added one hour later. Non-toxic doses were used in parasite growth inhibition assays. Parasite growth was measured by ability to incorporate tritiated uracil during the last 18 hours of culture.
(§2) First the toxicity of gabaculine was assessed by its ability to prevent growth of human foreskin fibroblasts (HFF) as measured by ^3H-thymidine uptake and microscopic evaluation. Non-toxic doses were used in parasite growth inhibition assays. in vitro parasite growth inhibition assays included confluent monolayers of HFF infected with tachyzoites (RH) or mutant Me49 (R5). Gabaculine was added 1 hour later. Parasite growth was measured by the ability to incorporate ^3H-uracil during the last 18 hours of culture. In addition, parasite growth was evaluated microscopically in Giemsa stained slides.
ii) in vitro Parasite Growth Inhibition Assays: Confluent monolayers of HFF cells, grown in 96-well plates are infected with T. gondii tachyzoites of the RH strain and serial dilutions of anti-microbial compound are applied 1 hour later. T. gondii growth is assessed in these cultures by their ability to incorporate tritiated uracil (2.5 μCi/well) added during the last 18 hours of culture. After harvesting cells with an automatic cell harvester, uracil incorporation is measured by liquid scintillation.

[4] = system: human foreskin fibroblasts (HFF); assay: Toxicity: growth of fibroblasts, tritiated thymidine uptake and microscopic evaluation; assay type: cell-based; conditions: similar concentrations (20 mM gabaculine)
Method: as §1, §2
d) Inhibitors: Inhibitor compounds are tested over a range of concentrations for toxicity against mammalian cells by assessing their ability to prevent cell growth as measured by tritiated thymidine uptake and inspection of the monolayer using microscopic evaluation. […]

[5] = system: mutant R5 strain of T. gondii; assay: Growth of mutant R5 strain of T. gondii in HFF over 8 days, uracil uptake; assay type: cell-based, Toxoplasma gondii; conditions: gabaculine 20 mM; P/S
Method: Improvements were developed in the assays reported by Mack et al. (1984) and Holfels et al. (1994) to measure T. gondii replication in tissue culture. The improvements are based on microscopic visual imspection of infected and inhibitor treated cultures, and on quantitation of nucleic acid synthesis of the parasite by measure intake of ^3H uracil onto the parasite's nucleic acid. Uracil is not utilized by mammalian cells. […]
First the toxicity of gabaculine was assessed by its ability to prevent growth of human foreskin fibroblasts (HFF) as measured by ^3H-thymidine uptake and microscopic evaluation. […] Parasite growth was measured by the ability to incorporate ^3H-uracil during the last 18 hours of culture. In addition, parasite growth was evaluated microscopically in Giemsa stained slides.
This mutant strain is atovaquone resistant and posseses certain characterisitics of the tachyzoite stage and certain characteristics of the bradyzoite stage. T. gondii growth is measure by their ability to incorporate tritiated uracil and is expressed as counts/minute (CPM) on the Y-axis. […]

[6] = system: T. gondii isocitrate lyase; assay: Isocitrate lyase enzyme activity in T. gondii tachyzoite lysates; assay type: biochemical, Toxoplasma gondii
Method: Parasite lysates were obtained from tachyzoites, suspended in elution buffer (100 mM KCL, 20% gylcerol 7 mM 2-mercaptoethanol, 20 mM Tris-HCL, pH 7.5, and complete protease inhibitor cocktail) [Boehringer Mannheim, 1 table per 50 ml buffer], sonicated 3 times for 3 seconds at 30 sec intervals, and centrifuged at 12,000 g for 15 min. The supernatant collected was applied to a Sephadex® G100 column (25 ml, Pharmacia) equilibrated with elution buffer, eluted with 15 ml of elution buffer,. and ≈1.5 ml fractions were collected. Fraction(s) with the peak protein concentrations (protein analysis performed on a spectrophotometer at 280 nm) were selected and used in enzyme assays.
A discontinuous method descrobed by Ko and McFadden^17 was employed with minor modifications to measure the ability of isocitrate lyase to convert isocitrate to succinate and glyoxylate. This method utilizes the colorimetric reaction between the phenylhydrozone of glyoxylate and ferricyanide. Reaction mixtures (92 mM MOPS, 5 mM MgCL2, 1 mM DTT, 1% phenylhydrazine, 4.4 mM isocitrate, in 0.5 ml with fractionated parasite lysate) were incubated in a 37° C. water bath for a determined amount of time. After incubation, enzymatic reactions were stopped with concentrated HCl, mixed with 25% (w/v) potassium ferricyanide, and then measured in a spectrophotometer at 520 nm.

SMILES: O=C(O)CNCP(=O)(O)O [NPMG, N-(phosphonomethyl) glycine]
- approximate 95% C1 count (mean parasite count per field) (C. parvum; NPMG 0.45 μg/ml): ~1200
- approximate 95% C1 count (mean parasite count per field) (C. parvum; NPMG 4.5 μg/ml): ~900
- approximate 95% C1 count (mean parasite count per field) (C. parvum; NPMG 0.045): ~1200
- effect of PABA on the effect of NPMG on C. parvum (C. parvum; PABA added): not abrogated by PABA
- antagonism of glyphosate growth inhibition by products ([1]; asexual erythrocytic forms, PABA and folate added): PABA and folate antagonism of growth inhibition
- EPSP synthase enzyme activity (T. gondii EPSP synthase): inhibition
- IC50 ([2]; read-out: IC 50): 0.823 µg/mL (≈ 4.87 µM)
- IC90 ([2]; read-out: IC90): 2.51 µg/mL (≈ 14.8 µM)
- CPM for A (T. gondii): 28138 ± 2216 CPM and 25097 ± 1398 CPM
- CPM restricted (tritiated uracil incorporation) ([3]; NPMG 3.12 mM, 4 day, medium around 72,000): around 60%
- counts (tritiated uracil incorporation) ([3]; NPMG 4.5 mM, 4 day, medium around 72,000, no RH around 2,000 CPM): about 12,000 CPM
- product rescue: effect of added PABA on inhibition by NPMG ([3]; PABA added to cultures): abrogates
- inhibition at 4500 µM ([3]; Toxoplasma gondii, Fibroblast, 96 h, NPMG 4.5 mM, 4 day, read-out: parasite growth inhibited): ~80%

SMILES: NC1C=CC=C(C(=O)O)C1 (centres unmarked) [gabaculine, 3-amino-2,3-dihydrobenzoic acid]
- approximate 95% C1 count (mean parasite count per field) (C. parvum; gabaculine 0.2 μg/ml): ~1300
- approximate 95% C1 count (mean parasite count per field) (C. parvum; gabaculine 2 μg/ml): ~600
- approximate 95% C1 count (mean parasite count per field) (C. parvum; gabaculine 20 μg/ml): ~200
- IC50 ([1]; Plasmodium falciparum): ≥ 45 µg/mL
- toxicity to the foreskin fibroblasts [4]: no toxicity
- Parasite growth of R5 strain over 8 days (CPM) [5]: restricted in cultures with 20 mM gabaculine (gabaculine) over the first 6 days of culture
- CPM restricted (tritiated uracil incorporation) [3]: around 50%
- counts (tritiated uracil incorporation) [3]: about 5,000 CPM
- inhibition at 5000 µM ([3]; Toxoplasma gondii, Fibroblast, 96 h, read-out: growth of T. gondii inhibited): ~60%
- Parasite growth over the 8 day time course (CPM) ([3]; gabaculine 20 mM, P/S): restricted

SMILES: O=C(O)CC[N+](=O)[O-] [3-NPA, 3-Nitropropionic acid]
- effect on Cryptosporidia in vitro (C. parvum): inhibited
- Isocitrate lyase enzyme activity [6]: inhibition
- CPM restricted (tritiated uracil incorporation) ([3]; 3-NPA 0.006 mg ml, 4-day, medium about 30,000 CPM): around 60%
